One may read the residual activity as the signal under treatment as a percentage of the control signal.

Molecules are shown by their SMILES.

Consider 3 compounds from ChEMBL document CHEMBL1152560, “Substituted 2-arylbenzothiazoles as kinase inhibitors: hit-to-lead optimization” (Bioorg Med Chem, 2009).

The target in test [1] is Serine/threonine-protein kinase PLK1 (Homo sapiens) (UniProt P53350). Description: Residual activity of PLK1 at 10 uM by microplate scintillation counting.
Test [2] deals with CDK3/cyclin E (Homo sapiens) (UniProt P24864+O96020+Q00526). Description: Residual activity of CDK3/Cyclin E at 1 uM by microplate scintillation counting. It counts as protein-complex assay.
CDK3/cyclin E (Homo sapiens), sequence (O96020 whole entry, looked up): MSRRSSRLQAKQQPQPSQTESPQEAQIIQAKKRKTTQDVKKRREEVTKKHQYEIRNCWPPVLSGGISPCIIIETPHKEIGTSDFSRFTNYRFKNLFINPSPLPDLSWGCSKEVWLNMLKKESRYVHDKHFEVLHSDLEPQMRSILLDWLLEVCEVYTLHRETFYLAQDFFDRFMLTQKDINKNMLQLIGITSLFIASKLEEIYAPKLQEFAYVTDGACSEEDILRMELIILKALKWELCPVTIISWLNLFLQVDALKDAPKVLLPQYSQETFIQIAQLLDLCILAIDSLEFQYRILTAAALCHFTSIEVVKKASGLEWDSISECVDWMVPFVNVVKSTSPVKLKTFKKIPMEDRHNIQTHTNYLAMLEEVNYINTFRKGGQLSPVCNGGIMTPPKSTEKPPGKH
CDK3/cyclin E (Homo sapiens), sequence (P24864 whole entry, looked up): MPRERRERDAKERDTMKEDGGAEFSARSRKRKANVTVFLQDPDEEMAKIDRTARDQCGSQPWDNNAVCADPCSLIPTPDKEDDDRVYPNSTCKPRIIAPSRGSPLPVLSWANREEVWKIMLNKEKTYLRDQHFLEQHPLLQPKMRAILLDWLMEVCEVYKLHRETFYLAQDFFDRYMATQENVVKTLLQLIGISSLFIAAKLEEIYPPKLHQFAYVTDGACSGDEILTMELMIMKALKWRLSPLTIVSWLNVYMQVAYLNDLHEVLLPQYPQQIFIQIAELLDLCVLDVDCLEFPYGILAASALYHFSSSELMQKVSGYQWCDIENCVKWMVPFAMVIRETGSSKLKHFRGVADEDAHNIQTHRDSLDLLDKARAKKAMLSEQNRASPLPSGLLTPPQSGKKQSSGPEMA
CDK3/cyclin E (Homo sapiens), sequence (Q00526 whole entry, looked up): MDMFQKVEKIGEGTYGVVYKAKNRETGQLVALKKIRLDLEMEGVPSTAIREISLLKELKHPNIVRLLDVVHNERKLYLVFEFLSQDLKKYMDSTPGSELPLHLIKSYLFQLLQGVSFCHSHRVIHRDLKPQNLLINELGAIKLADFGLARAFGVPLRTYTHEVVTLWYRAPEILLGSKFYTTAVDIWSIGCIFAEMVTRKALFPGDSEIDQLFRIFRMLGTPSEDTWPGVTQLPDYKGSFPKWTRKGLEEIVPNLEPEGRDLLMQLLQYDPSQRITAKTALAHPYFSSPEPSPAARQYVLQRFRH
The target in test [3] is Fibroblast growth factor receptor 3 (Homo sapiens) (UniProt P22607). Description: Residual activity of FGFR3 at 1 uM by microplate scintillation counting.
Fibroblast growth factor receptor 3 (Homo sapiens), sequence (P22607 23-806 limits assumed): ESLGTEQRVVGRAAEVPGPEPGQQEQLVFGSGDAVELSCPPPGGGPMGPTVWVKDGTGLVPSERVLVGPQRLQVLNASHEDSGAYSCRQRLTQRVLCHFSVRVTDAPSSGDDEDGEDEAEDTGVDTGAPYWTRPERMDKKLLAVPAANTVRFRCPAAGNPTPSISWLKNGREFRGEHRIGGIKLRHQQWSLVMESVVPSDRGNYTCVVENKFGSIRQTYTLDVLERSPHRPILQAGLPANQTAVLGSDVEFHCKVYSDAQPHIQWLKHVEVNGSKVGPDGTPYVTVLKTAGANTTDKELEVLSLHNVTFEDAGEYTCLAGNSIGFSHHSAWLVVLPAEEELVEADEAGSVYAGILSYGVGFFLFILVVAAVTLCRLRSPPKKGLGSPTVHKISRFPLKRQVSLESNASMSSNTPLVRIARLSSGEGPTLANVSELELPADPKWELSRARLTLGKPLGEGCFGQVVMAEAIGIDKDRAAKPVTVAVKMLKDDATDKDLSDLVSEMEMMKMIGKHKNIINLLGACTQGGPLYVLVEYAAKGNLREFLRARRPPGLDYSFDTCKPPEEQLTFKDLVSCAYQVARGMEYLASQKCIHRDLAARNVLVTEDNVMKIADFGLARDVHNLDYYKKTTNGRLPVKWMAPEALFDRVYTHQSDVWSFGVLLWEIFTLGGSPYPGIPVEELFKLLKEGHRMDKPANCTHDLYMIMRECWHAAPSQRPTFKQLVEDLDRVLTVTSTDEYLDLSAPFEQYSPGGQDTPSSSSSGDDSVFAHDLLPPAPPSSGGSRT
For test [4], the system named is Epidermal growth factor receptor (Homo sapiens), P00533 [L858R]. Description: Residual activity of EGFR L858R mutant at 0.1 uM by microplate scintillation counting.
Test [5] deals with T1, Protein kinase C zeta type (Homo sapiens) (UniProt Q05513).
T1 sequence (whole entry): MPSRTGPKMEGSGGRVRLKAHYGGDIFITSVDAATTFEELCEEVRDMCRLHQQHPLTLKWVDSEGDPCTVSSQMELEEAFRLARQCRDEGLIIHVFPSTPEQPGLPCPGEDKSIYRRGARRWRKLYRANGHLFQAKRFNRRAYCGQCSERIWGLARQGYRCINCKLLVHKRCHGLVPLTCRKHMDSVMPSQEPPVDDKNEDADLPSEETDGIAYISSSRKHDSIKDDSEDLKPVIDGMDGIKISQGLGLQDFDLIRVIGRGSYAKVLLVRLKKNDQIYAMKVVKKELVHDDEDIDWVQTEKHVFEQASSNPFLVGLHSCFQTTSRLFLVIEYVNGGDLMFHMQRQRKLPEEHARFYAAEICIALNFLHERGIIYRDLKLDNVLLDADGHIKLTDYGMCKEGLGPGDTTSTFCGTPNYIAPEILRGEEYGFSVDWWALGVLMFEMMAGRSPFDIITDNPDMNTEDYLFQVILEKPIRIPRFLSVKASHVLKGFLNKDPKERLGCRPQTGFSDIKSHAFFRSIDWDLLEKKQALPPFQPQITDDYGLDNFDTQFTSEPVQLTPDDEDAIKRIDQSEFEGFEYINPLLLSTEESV
Description: Residual activity of PKCzeta at 10 uM by microplate scintillation counting.

The target of test [6] is T2, Eukaryotic translation initiation factor 2-alpha kinase 3 (Homo sapiens) (UniProt Q9NZJ5).
T2 sequence (whole entry): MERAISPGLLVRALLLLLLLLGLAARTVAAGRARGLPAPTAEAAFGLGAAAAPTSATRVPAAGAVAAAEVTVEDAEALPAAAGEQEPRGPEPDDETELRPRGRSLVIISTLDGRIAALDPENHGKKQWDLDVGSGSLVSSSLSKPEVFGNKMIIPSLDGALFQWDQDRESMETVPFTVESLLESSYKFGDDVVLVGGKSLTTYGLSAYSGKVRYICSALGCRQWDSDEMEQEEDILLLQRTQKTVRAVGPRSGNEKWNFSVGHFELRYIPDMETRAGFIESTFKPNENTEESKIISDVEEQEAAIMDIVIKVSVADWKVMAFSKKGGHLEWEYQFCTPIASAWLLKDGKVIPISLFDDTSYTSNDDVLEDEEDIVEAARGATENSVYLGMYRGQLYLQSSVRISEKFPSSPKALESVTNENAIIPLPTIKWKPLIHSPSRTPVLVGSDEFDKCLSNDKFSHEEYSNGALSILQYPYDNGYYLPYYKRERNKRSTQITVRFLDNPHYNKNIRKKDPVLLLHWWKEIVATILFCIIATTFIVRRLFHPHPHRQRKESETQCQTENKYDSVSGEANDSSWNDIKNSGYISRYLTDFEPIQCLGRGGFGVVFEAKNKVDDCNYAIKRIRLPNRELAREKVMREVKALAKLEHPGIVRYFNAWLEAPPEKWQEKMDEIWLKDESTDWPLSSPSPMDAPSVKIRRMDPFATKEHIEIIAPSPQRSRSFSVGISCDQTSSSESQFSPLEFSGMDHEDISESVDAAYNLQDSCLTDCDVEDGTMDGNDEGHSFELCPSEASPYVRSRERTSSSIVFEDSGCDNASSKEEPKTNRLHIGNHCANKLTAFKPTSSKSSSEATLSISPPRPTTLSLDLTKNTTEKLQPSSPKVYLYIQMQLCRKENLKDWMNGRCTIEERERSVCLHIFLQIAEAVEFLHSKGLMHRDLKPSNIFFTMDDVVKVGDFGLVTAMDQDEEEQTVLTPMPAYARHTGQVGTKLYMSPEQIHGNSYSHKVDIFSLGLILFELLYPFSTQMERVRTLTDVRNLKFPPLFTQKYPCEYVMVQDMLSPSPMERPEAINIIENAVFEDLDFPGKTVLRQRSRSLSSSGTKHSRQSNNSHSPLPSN
Description: Residual activity of EIF2AK3 at 0.1 uM by microplate scintillation counting.

Test [7] has as its target T3, Serine/threonine-protein kinase PLK4 (Homo sapiens) (UniProt O00444).
T3 sequence (whole entry): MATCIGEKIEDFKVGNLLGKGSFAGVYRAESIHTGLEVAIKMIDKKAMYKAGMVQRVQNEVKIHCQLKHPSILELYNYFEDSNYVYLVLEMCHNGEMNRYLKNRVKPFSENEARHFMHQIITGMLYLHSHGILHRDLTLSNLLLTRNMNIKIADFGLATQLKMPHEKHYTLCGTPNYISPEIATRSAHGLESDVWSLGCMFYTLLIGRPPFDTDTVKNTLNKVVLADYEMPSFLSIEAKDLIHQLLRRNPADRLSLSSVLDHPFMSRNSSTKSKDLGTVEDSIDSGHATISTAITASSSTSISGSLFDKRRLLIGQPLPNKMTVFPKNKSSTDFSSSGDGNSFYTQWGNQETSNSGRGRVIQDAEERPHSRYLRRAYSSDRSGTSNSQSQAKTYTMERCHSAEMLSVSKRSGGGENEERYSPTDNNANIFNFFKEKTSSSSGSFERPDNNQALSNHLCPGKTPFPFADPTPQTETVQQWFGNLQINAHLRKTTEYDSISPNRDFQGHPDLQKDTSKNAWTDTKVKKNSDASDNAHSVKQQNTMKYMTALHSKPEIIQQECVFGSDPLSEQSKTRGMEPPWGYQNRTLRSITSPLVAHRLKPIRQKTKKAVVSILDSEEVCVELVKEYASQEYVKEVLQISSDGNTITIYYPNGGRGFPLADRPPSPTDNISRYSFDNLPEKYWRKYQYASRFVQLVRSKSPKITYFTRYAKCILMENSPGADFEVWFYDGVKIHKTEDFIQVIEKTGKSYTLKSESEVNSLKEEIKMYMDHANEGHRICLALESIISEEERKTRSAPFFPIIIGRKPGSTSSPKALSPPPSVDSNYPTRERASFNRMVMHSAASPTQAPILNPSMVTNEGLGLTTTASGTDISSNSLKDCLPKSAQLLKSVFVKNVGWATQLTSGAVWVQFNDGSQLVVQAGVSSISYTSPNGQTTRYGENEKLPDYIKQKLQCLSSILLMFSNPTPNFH
Description: Residual activity of SAK at 1 uM by microplate scintillation counting.

Serine/threonine-protein kinase PLK1 (Homo sapiens), sequence (P53350 whole entry): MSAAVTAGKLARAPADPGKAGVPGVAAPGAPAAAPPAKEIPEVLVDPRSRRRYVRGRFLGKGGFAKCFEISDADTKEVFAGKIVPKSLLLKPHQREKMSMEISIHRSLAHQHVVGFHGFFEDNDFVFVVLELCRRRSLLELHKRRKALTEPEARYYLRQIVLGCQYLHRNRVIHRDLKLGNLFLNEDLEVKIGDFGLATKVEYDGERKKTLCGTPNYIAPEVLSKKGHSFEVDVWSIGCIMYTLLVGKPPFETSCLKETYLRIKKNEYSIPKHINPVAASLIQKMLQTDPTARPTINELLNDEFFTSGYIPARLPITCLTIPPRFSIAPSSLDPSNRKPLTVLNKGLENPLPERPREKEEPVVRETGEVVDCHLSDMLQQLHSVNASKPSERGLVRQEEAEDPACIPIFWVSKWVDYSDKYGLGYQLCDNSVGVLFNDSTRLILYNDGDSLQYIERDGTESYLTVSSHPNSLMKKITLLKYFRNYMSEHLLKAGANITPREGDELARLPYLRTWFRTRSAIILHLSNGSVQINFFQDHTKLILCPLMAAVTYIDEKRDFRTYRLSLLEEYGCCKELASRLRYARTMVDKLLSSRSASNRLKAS

As to `COc1cc2c(Oc3ccc(-c4nc5ccccc5s4)cc3)ncnc2cc1OCCCN1CCN(C)CC1`, the residual activity in test [1] was 134%; in test [2], 85%; in test [3] it was 90%; in test [4] it was 93%; in test [5], 72%; in test [6] it was 90%. Also, the residual activity in test [7] turned out to be 10%.

Turning to `COc1cc2c(Oc3ccc(-c4nc5ccccc5s4)cc3)ncnc2cc1OCCCN1CCCC1`, the residual activity is 123% in test [1]; 89% in test [2]; 98% in test [3]; 92% in test [4]; 64% in test [5]; 102% in test [6]. Moreover, in test [7], the residual activity was determined as 19%.

`COc1cc2c(Oc3ccc(-c4nc5ccccc5s4)cc3F)ncnc2cc1OCCCN1CCN(C)CC1`: the residual activity is 100% in test [1]; 79% in test [2]; 88% in test [3]; 94% in test [4]; 74% in test [5]; 101% in test [6]. Besides, in test [7], the residual activity was determined as 26%.
